Structures are written as SMILES.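 Five compound concentrations were applied to cells in 96-well plates for 48 hours; endpoints were derived by simple linear interpolation of the resulting dose-response curve. GI50 = concentration required for 50% inhibition of growth.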 The source made the active and inactive calls. No stated cut-off is given here; in the data, active = GI50 up to about 1.1 µM and inactive = higher. Non-standard residues stand in square brackets, D forms with d. Residues, ends and D or L forms follow the SMILES beside them. *: point of attachment. Ac5c = NC1(C(=O)O)CCCC1; Boc = CC(C)(C)OC(=O)*; tBu = CC(C)(C)*

Some test systems named below: T47D; U-251; SK-MEL-28; COLO 205; NCI/ADR-RES; SW-620; HOP-92; NCI-H23; LOX IMVI; RXF 393; MCF7; SK-OV-3; PC-3; SF-539; UACC-257; MDA-MB-231; HT-29; EKVX; NCI-H226; SNB-19.
Test in all cases: NCI anticancer screen, dose series, 48 h

In the case of `C=CC(C)(C)n1cc(C2=C(O)C(=O)C(c3cn(C(C)(C)C=C)c4ccccc34)=C(O)C2=O)c2ccccc21`, the GI50 in the test with T47D was 6.71 µM (inactive); in the test with U-251, 2.35 µM (inactive); in the test on SK-MEL-28 it was 7.33 µM (inactive); in the test with COLO 205, 9.14 µM (inactive); in the test with NCI/ADR-RES, 2.2 µM (inactive); in the test on SW-620, 10.3 µM (inactive). Further, the GI50 in the test with HOP-92 is 3.34 µM (inactive); in the test on NCI-H23, 2.32 µM (inactive); in the test on LOX IMVI it was 3.13 µM (inactive); with RXF 393, 0.435 µM (active); with MCF7, 3.48 µM (inactive); in the test on SK-OV-3, 2.67 µM (inactive). Besides, the GI50 in the test on PC-3 was 2.27 µM (inactive); in the test on SF-539 it was 1.59 µM (inactive); in the test on UACC-257 it was 2.9 µM (inactive); in the test with MDA-MB-231, 3.71 µM (inactive); in the test on HT-29, 3.74 µM (inactive); in the test with EKVX, 2.93 µM (inactive). Besides, the GI50 with NCI-H226 is 2.67 µM (inactive); in the test with SNB-19, 2.41 µM (inactive).

Consider `C=CCN(c1cc(OC)c2[nH]c(C(=O)OCC)c(C)c2c1[N+](=O)[O-])S(C)(=O)=O`, for which the GI50 in the test on T47D was 15.2 µM (inactive); in the test on U-251 it was 16.1 µM (inactive); with SK-MEL-28 it was 43.2 µM (inactive); in the test with COLO 205, 15.5 µM (inactive); with NCI/ADR-RES, 23.6 µM (inactive); with SW-620, 34.3 µM (inactive). The GI50 is 18.6 µM (inactive) in the test with HOP-92; 28.4 µM (inactive) with NCI-H23; 19.3 µM (inactive) in the test on LOX IMVI; 7.23 µM (inactive) with RXF 393; 22.4 µM (inactive) with MCF7; 36.3 µM (inactive) in the test on SK-OV-3. Besides, the GI50 is 18 µM (inactive) in the test with PC-3; 33.6 µM (inactive) in the test on SF-539; 39.9 µM (inactive) in the test with UACC-257; 11 µM (inactive) in the test on MDA-MB-231; 18.2 µM (inactive) in the test on HT-29; 18.5 µM (inactive) in the test with EKVX. In addition, the GI50 with NCI-H226 is 1.04 µM (active); in the test on SNB-19, 28.4 µM (inactive).

With `O=C1C2C(c3ccccc3)NC(c3ccccc3)C1C(c1ccccc1)NC2c1ccccc1` (stereo not given), the GI50 in the test on T47D, in the test on U-251, in the test on SK-MEL-28, in the test on COLO 205, with NCI/ADR-RES and in the test with SW-620 was > 100 µM (inactive) each time. The GI50 in the test on HOP-92, in the test with NCI-H23, in the test on LOX IMVI, in the test on RXF 393, with MCF7 and in the test on SK-OV-3 was > 100 µM (inactive) throughout. Besides, the GI50 in the test on PC-3, with SF-539, with UACC-257, with MDA-MB-231, with HT-29 and with EKVX was > 100 µM (inactive) throughout. Moreover, the GI50 in the test on NCI-H226 and with SNB-19 was > 100 µM (inactive) throughout.

Turning to `C/C(=N\NC(=S)N1CCCCCC1)c1ccccn1`, the GI50 in the test on T47D is 0.00438 µM (active); with U-251, 0.00522 µM (active); in the test with SK-MEL-28, 1.18 µM (inactive); in the test with COLO 205 it was 0.00244 µM (active); in the test with NCI/ADR-RES it was 0.01 µM (active); with SW-620, 0.0148 µM (active). In addition, the GI50 is 0.01 µM (active) with HOP-92; 0.00897 µM (active) in the test with NCI-H23; 0.0656 µM (active) in the test with LOX IMVI; 0.553 µM (active) in the test with RXF 393; 0.0022 µM (active) in the test with MCF7; 0.00665 µM (active) in the test on SK-OV-3. For the same compound, the GI50 was 0.011 µM (active) in the test on PC-3; 0.0506 µM (active) with SF-539; 0.0128 µM (active) in the test with UACC-257; 0.0249 µM (active) in the test with MDA-MB-231; < 0.001 µM (active) in the test with HT-29; 0.0641 µM (active) in the test with EKVX. Further, the GI50 in the test with NCI-H226 is 0.565 µM (active); in the test on SNB-19, 0.0521 µM (active).

Regarding `CC(C)C(C/C=C1\CC(CO)(COC(=O)C2CCCCC2)OC1=O)C(C)C` (stereo not given), the GI50 was 21.2 µM (inactive) in the test with T47D; 19 µM (inactive) in the test on U-251; 16.6 µM (inactive) in the test with SK-MEL-28; 10.3 µM (inactive) with COLO 205; 20.7 µM (inactive) in the test on NCI/ADR-RES; 21.3 µM (inactive) with SW-620. Further, the GI50 in the test with HOP-92 is 16.9 µM (inactive); with NCI-H23, 20.6 µM (inactive); in the test with LOX IMVI it was 15.7 µM (inactive); in the test with RXF 393, 19.1 µM (inactive); in the test with MCF7, 21.2 µM (inactive); in the test with SK-OV-3, > 100 µM (inactive). Besides, the GI50 with PC-3 is 18.2 µM (inactive); in the test with SF-539 it was 20.3 µM (inactive); with UACC-257, 32.2 µM (inactive); in the test with MDA-MB-231 it was 16.8 µM (inactive); in the test on HT-29, 30.6 µM (inactive); with EKVX it was 19 µM (inactive). For the same compound, the results for the GI50 in the test on NCI-H226 and with SNB-19 were 18.2 µM (inactive) and 16.3 µM (inactive), respectively.

`CC(OC(C)(C)C)C(NC(=O)C(CCCCNC(=O)OC(C)(C)C)NC(=O)C(Cc1c[nH]c2ccccc12)NC(=O)C(N)Cc1ccccc1)C(=O)NC(Cc1ccccc1)C(=O)NC1(C(=O)O)CCCC1` (stereo not given) (H-FWK(Boc)T(tBu)F[Ac5c]-OH; configuration not given here): the GI50 with T47D is 79.4 µM (inactive); in the test with U-251 it was > 100 µM (inactive); in the test on SK-MEL-28 it was > 100 µM (inactive); in the test with COLO 205, > 100 µM (inactive); in the test with NCI/ADR-RES it was > 100 µM (inactive); with SW-620, > 100 µM (inactive). In addition, the GI50 with HOP-92, with NCI-H23, with LOX IMVI, in the test on RXF 393, in the test on MCF7 and in the test with SK-OV-3 was > 100 µM (inactive) in each case. Further, the GI50 with PC-3, with SF-539, in the test with UACC-257, in the test with MDA-MB-231, with HT-29 and in the test with EKVX was > 100 µM (inactive) in each case. Besides, the GI50 in the test on NCI-H226 and in the test with SNB-19 was > 100 µM (inactive) throughout.

With `C=C1C(=O)O[C@H]2[C@H]1[C@H](OC(=O)/C(C)=C\C)C[C@]1(CO1)[C@@H]1[C@H](OC(C)=O)C=C(C)[C@]21O` [EUPAROTIN ACETATE], the GI50 is 14.5 µM (inactive) in the test on T47D; 21.9 µM (inactive) in the test with U-251; 14.7 µM (inactive) in the test with SK-MEL-28; 5.24 µM (inactive) in the test on COLO 205; 21.5 µM (inactive) with NCI/ADR-RES; 8.85 µM (inactive) in the test on SW-620. Further, the GI50 with HOP-92 is 15 µM (inactive); with NCI-H23, 23.2 µM (inactive); in the test on LOX IMVI, 12.7 µM (inactive); in the test with RXF 393 it was 10.8 µM (inactive); in the test with MCF7, 6.79 µM (inactive); in the test on SK-OV-3, > 59.6 µM (inactive). The GI50 is 23.1 µM (inactive) with PC-3; 30.3 µM (inactive) in the test on SF-539; 17.7 µM (inactive) with UACC-257; 16.5 µM (inactive) with MDA-MB-231; 12.4 µM (inactive) in the test on HT-29; 17 µM (inactive) in the test on EKVX. In addition, the GI50 in the test on NCI-H226 is > 43 µM (inactive); in the test on SNB-19, > 58.5 µM (inactive).

The values above are taken from ChEMBL document CHEMBL1201862, “PubChem BioAssay data set” (2004).
